Data as given in ChEMBL document CHEMBL4800732, “Data for DCP probe TP-040” (2021).

Legend:
[1] = molecular target: T1, Alpha-2C adrenergic receptor (Homo sapiens, UniProt P18825); test: GPCRScan assay: inhibition of Alpha2C; set-up: radioligand conc. used [nm] 0.5 – 1.0, parental cells stable MDCK
T1 sequence (P18825 whole entry): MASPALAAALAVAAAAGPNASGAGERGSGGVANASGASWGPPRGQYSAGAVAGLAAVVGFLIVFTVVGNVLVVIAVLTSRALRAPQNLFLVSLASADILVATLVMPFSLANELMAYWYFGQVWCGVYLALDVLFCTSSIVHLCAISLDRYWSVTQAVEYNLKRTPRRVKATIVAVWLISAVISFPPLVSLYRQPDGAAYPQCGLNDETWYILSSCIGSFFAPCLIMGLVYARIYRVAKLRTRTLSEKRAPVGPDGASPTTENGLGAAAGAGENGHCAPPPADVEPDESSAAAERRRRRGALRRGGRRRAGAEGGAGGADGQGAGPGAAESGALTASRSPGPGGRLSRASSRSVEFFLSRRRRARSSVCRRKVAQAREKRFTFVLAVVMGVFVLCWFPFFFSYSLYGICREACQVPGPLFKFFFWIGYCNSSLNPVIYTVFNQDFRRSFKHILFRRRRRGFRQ

[2] = molecular target: Alpha-2A adrenergic receptor (Homo sapiens) (UniProt P08913); conditions: Compound concentration 10.0 uM
[3] = molecular target: Alpha-1B adrenergic receptor (Homo sapiens) (UniProt P35368); conditions: Compound concentration 10.0 uM
[4] = molecular target: Sodium-dependent serotonin transporter (Homo sapiens) (UniProt P31645); conditions: Compound concentration 10.0 uM
[5] = molecular target: Histamine H3 receptor (Homo sapiens, UniProt Q9Y5N1); conditions: Compound concentration 10.0 uM
[6] = molecular target: Histamine H1 receptor (Homo sapiens) (UniProt P35367); conditions: Compound concentration 10.0 uM
[7] = molecular target: 5-hydroxytryptamine receptor 1E (Homo sapiens) (UniProt P28566); conditions: Compound concentration 10.0 uM
[8] = molecular target: 5-hydroxytryptamine receptor 2C (Homo sapiens) (UniProt P28335); conditions: Compound concentration 10.0 uM
Sequence of 5-hydroxytryptamine receptor 2C (Homo sapiens) (P28335 whole entry): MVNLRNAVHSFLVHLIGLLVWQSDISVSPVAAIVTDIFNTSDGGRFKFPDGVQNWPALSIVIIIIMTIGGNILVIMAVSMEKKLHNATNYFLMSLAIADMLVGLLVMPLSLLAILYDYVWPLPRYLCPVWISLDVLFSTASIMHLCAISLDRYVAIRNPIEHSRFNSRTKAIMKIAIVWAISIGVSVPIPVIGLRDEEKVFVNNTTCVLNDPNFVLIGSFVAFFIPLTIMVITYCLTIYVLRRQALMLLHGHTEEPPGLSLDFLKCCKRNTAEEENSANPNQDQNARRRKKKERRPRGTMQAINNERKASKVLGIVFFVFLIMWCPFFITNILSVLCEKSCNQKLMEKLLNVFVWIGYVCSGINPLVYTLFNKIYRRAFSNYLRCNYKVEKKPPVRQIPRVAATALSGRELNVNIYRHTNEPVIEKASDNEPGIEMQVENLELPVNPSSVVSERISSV

[9] = molecular target: 5-hydroxytryptamine receptor 1D (Homo sapiens, UniProt P28221); test: GPCRScan assay: inhibition of 5-HT1D; set-up: radioligand conc. used [nm] 1.0 – 2.0, parental cells HEKT
Sequence of 5-hydroxytryptamine receptor 1D (P28221 whole entry): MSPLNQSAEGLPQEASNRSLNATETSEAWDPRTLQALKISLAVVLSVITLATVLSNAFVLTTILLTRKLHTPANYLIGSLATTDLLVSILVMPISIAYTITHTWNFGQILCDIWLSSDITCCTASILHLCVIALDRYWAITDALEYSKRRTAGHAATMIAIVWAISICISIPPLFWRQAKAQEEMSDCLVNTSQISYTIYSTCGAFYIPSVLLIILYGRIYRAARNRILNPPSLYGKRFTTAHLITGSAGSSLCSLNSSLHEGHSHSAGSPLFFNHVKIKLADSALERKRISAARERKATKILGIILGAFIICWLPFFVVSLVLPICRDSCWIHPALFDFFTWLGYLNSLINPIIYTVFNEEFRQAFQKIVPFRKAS

[10] = molecular target: T2, Sodium-dependent noradrenaline transporter (Homo sapiens, UniProt P23975); conditions: Compound concentration 10.0 uM
T2 sequence (P23975 whole entry): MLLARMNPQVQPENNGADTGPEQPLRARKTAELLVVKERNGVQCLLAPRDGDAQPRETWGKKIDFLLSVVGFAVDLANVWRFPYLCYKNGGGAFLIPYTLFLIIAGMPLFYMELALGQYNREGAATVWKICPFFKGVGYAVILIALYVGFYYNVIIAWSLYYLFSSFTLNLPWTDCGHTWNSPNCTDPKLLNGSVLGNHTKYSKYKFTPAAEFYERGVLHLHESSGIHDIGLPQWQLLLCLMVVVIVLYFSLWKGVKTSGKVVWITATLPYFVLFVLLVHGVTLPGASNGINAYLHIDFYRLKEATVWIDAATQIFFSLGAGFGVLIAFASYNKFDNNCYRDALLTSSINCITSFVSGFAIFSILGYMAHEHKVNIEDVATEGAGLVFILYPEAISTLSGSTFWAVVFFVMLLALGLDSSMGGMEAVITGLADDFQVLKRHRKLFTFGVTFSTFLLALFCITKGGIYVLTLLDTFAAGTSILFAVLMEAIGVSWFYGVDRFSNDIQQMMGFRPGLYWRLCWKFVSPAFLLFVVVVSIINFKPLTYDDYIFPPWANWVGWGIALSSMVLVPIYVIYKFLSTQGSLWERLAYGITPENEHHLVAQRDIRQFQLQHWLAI

[11] = molecular target: D(3) dopamine receptor (Homo sapiens) (UniProt P35462); conditions: Compound concentration 10.0 uM
Sequence of D(3) dopamine receptor (Homo sapiens) (P35462 whole entry): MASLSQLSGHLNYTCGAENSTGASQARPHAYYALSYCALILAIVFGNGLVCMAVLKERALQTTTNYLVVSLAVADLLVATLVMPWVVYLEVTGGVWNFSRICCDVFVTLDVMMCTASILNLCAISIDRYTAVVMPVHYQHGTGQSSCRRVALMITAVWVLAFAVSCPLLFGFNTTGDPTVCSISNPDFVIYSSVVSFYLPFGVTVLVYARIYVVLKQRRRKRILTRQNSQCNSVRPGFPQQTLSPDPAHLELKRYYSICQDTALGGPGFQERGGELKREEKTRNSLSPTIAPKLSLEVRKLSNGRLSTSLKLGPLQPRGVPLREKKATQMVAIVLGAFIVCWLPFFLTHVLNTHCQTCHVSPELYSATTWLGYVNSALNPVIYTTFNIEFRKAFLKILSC

[12] = molecular target: T3, GABA-A receptor; anion channel (Rattus norvegicus) (UniProt O09028+P15431+P18506+P18508+P19969+P20236+P23574+P23576+P28471+P28473+P30191+P62813+P63079+P63138+Q91ZM7+Q9ES14); conditions: Compound concentration 10.0 uM
[13] = molecular target: T3, GABA-A receptor; anion channel (Rattus norvegicus); conditions: Compound concentration 10.0 uM; remark: listed apart in the source
[14] = molecular target: T4, Alpha-2B adrenergic receptor (Homo sapiens, UniProt P18089); test: GPCRScan assay: inhibition of Alpha2B; set-up: radioligand conc. used [nm] 1.5 – 2.0, parental cells HEKT
T4 sequence (P18089 whole entry): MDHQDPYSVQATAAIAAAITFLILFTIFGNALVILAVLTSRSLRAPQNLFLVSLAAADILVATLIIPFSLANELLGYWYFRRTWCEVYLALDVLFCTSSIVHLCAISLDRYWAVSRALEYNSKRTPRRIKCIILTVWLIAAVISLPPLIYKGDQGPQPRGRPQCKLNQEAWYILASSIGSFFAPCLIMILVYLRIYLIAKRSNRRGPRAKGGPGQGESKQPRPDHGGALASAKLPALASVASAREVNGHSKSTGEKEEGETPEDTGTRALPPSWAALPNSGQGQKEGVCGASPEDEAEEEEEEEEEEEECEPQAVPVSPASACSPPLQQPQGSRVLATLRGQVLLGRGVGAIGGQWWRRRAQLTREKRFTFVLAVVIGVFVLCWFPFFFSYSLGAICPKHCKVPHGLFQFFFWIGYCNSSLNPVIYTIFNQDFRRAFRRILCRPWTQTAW

[15] = molecular target: 5-hydroxytryptamine receptor 2B (Homo sapiens, UniProt P41595); conditions: Compound concentration 10.0 uM
[16] = molecular target: D(2) dopamine receptor (Homo sapiens) (UniProt P14416); conditions: Compound concentration 10.0 uM
Sequence of D(2) dopamine receptor (Homo sapiens) (P14416 whole entry): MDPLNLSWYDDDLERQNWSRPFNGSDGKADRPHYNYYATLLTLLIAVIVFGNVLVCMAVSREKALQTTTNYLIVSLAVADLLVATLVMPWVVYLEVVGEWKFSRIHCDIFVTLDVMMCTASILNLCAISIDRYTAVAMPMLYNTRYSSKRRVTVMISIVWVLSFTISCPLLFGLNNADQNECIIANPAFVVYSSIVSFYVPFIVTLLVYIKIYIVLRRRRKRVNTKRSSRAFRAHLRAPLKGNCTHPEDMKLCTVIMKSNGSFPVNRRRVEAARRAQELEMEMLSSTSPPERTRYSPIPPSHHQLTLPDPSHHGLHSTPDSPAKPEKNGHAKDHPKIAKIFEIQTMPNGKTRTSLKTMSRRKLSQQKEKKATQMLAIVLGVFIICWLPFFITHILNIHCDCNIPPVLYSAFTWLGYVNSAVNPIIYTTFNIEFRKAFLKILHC

[17] = molecular target: Alpha-2C adrenergic receptor (Homo sapiens) (UniProt P18825); conditions: Compound concentration 10.0 uM
[18] = molecular target: Sigma intracellular receptor 2 (Homo sapiens, UniProt Q5BJF2); conditions: Compound concentration 10.0 uM
[19] = molecular target: Muscarinic acetylcholine receptor M4 (Homo sapiens) (UniProt P08173); conditions: Compound concentration 10.0 uM
Sequence of Muscarinic acetylcholine receptor M4 (Homo sapiens) (P08173 whole entry): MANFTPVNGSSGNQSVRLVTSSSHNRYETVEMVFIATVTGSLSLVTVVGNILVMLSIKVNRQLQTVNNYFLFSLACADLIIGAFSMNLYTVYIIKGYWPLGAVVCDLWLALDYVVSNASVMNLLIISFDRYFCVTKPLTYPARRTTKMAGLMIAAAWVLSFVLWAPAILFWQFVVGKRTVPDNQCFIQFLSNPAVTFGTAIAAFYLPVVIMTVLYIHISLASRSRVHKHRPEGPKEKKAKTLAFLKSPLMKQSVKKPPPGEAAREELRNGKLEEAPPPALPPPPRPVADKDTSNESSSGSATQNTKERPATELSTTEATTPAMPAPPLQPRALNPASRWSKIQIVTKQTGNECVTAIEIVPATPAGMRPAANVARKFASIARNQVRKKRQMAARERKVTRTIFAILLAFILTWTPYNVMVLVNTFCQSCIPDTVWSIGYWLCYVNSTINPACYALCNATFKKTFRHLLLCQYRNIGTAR

[20] = molecular target: T2, Sodium-dependent noradrenaline transporter; test: GPCRScan assay: inhibition of NET; set-up: radioligand conc. used [nm] 1.3 – 5.0, parental cells stable HEK
[21] = molecular target: Alpha-1D adrenergic receptor (Homo sapiens) (UniProt P25100); conditions: Compound concentration 10.0 uM
Sequence of Alpha-1D adrenergic receptor (Homo sapiens) (P25100 whole entry): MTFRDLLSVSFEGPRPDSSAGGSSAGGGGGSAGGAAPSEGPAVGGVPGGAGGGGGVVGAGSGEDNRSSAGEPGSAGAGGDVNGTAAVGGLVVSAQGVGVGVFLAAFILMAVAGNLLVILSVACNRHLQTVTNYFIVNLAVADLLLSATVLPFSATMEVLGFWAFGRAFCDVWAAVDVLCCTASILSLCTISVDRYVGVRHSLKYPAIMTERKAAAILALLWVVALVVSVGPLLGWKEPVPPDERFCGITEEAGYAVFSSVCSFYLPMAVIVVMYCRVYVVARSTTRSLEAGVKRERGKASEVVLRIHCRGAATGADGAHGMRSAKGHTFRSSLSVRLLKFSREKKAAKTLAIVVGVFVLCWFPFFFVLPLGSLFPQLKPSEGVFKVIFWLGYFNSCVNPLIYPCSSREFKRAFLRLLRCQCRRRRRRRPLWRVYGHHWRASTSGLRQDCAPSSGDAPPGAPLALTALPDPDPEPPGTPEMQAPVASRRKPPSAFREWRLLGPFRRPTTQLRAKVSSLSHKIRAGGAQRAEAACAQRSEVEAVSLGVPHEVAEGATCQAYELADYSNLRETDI

[22] = molecular target: Histamine H2 receptor (Homo sapiens, UniProt P25021); conditions: Compound concentration 10.0 uM
[23] = molecular target: Muscarinic acetylcholine receptor M5 (Homo sapiens) (UniProt P08912); conditions: Compound concentration 10.0 uM
[24] = molecular target: 5-hydroxytryptamine receptor 5A (Homo sapiens, UniProt P47898); conditions: Compound concentration 10.0 uM
Sequence of 5-hydroxytryptamine receptor 5A (P47898 whole entry): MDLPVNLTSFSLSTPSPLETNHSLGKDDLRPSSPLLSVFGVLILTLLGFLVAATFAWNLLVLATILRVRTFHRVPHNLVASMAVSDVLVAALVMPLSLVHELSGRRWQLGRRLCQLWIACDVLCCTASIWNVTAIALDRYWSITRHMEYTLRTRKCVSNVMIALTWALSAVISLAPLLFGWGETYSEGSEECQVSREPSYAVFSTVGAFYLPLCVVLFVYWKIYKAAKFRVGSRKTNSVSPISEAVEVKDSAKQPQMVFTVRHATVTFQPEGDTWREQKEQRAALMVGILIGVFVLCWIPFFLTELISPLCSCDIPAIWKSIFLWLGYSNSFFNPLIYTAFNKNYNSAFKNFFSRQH

[25] = molecular target: Sodium-dependent dopamine transporter (Homo sapiens, UniProt Q01959); conditions: Compound concentration 10.0 uM
[26] = molecular target: D(1A) dopamine receptor (Homo sapiens) (UniProt P21728); conditions: Compound concentration 10.0 uM
Sequence of D(1A) dopamine receptor (Homo sapiens) (P21728 whole entry): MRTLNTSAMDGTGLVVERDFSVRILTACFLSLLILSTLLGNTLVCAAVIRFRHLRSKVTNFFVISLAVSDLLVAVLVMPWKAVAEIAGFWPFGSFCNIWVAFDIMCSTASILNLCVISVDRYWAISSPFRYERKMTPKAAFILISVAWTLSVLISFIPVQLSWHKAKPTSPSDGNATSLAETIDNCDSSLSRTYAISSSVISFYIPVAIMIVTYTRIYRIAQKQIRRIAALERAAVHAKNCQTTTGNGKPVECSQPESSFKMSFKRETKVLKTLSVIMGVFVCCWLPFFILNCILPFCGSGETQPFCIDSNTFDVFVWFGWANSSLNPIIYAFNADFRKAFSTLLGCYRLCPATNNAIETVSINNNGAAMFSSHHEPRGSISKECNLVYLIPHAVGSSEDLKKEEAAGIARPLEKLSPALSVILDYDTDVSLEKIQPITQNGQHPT

[27] = molecular target: Beta-2 adrenergic receptor (Homo sapiens) (UniProt P07550); conditions: Compound concentration 10.0 uM
Sequence of Beta-2 adrenergic receptor (Homo sapiens) (P07550 whole entry, looked up): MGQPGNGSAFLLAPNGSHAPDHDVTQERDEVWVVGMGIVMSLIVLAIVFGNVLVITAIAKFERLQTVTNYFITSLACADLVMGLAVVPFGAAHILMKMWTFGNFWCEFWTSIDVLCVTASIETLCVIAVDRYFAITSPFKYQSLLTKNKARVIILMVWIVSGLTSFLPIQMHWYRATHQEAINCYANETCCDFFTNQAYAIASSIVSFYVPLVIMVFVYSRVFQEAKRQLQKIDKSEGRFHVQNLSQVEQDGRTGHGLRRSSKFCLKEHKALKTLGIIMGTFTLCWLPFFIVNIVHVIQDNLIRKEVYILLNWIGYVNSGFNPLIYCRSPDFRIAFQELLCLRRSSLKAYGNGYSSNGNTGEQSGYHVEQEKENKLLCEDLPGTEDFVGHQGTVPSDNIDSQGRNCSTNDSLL

[28] = molecular target: Muscarinic acetylcholine receptor M3 (Homo sapiens) (UniProt P20309); conditions: Compound concentration 10.0 uM
[29] = molecular target: 5-hydroxytryptamine receptor 2A (Homo sapiens, UniProt P28223); conditions: Compound concentration 10.0 uM
[30] = molecular target: 5-hydroxytryptamine receptor 3A (Homo sapiens) (UniProt P46098); conditions: Compound concentration 10.0 uM
[31] = molecular target: Sigma non-opioid intracellular receptor 1 (Homo sapiens, UniProt Q99720); conditions: Compound concentration 10.0 uM
Sequence of Sigma non-opioid intracellular receptor 1 (Q99720 whole entry): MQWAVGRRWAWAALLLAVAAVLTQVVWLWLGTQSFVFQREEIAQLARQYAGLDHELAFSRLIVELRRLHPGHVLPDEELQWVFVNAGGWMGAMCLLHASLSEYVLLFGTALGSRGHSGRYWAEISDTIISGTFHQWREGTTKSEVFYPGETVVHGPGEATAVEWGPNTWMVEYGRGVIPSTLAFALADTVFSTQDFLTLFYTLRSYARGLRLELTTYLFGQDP

CN1CCN(c2ccnc(NCCc3ccccc3)n2)CC1 [TP-040n]
2040 nM: Ki ([9]; read-out: Ki)
3020 nM: Ki ([20]; read-out: pKi (converted))
427 nM: Ki ([14]; read-out: pKi (converted))
407 nM: Ki ([1]; read-out: pKi (converted))
414 nM: Ki ([1]; read-out: Ki)
1820 nM: Ki ([9]; read-out: pKi (converted))
475 nM: Ki ([14]; read-out: Ki)
inactive: inhibition [2] 34.6% | inhibition [3] 22.1% | inhibition [4] 35.8% | inhibition [6] 41.6% | inhibition [7] 19.5% | inhibition [11] 22.6% | inhibition [12] 34.6% | inhibition [13] 22.9% | inhibition [16] 20.6% | inhibition [19] 25.9% | inhibition [21] 26% | inhibition [23] 6.46% | inhibition [26] 26.5% | inhibition [27] -3.49% | inhibition [28] -3.28% | inhibition [30] 22.4%
3110 nM: Ki ([20]; read-out: Ki)
active: inhibition [5] 86.2% | inhibition [8] 94.8% | inhibition [10] 93.8% | inhibition [15] 91.7% | inhibition [17] 96.8% | inhibition [18] 77.2% | inhibition [22] 95.6% | inhibition [24] 59.8% | inhibition [25] 98% | inhibition [29] 72.9% | inhibition [31] 98.8%

CC1CCN(c2ccnc(NCc3cn(C)cn3)n2)CC1 [TP-040]
1910 nM: Ki ([20]; read-out: pKi (converted))
2570 nM: Ki ([14]; read-out: Ki)
3430 nM: Ki ([1]; read-out: Ki)
631 nM: Ki ([9]; read-out: pKi (converted))
3390 nM: Ki ([1]; read-out: pKi (converted))
active: inhibition [8] 89.2% | inhibition [10] 75.8% | inhibition [13] 67.4% | inhibition [15] 81.8% | inhibition [17] 51.8%
417 nM: Ki ([9]; read-out: Ki)
1940 nM: Ki ([20]; read-out: Ki)
inactive: inhibition [2] 12.8% | inhibition [3] -5.62% | inhibition [4] 5.83% | inhibition [5] 35.1% | inhibition [6] 40.1% | inhibition [7] 3.36% | inhibition [11] 47% | inhibition [12] 2.33% | inhibition [16] 4.96% | inhibition [18] 33.6% | inhibition [19] 20.6% | inhibition [21] 25.1% | inhibition [22] 28.6% | inhibition [23] 25.1% | inhibition [24] 24% | inhibition [25] 20.6% | inhibition [26] -8.84% | inhibition [27] -3.61% | inhibition [28] 7.48% | inhibition [29] 33.8% | inhibition [30] 27.7% | inhibition [31] 36.6%
